Measured values as given in patent US12612442B2, “G12-specific designer receptor exclusively activated by designer drugs” (CELL NETWORKS GMBH, priority 2019, dated 2026).

Experiments:
RhoA [1] = experiment: NanoBiT-RhoA assay in MDA-MB-231 cells (endogenously expressed GPCRs); type: cell-based, human; details: thrombin 1000 U L^−1
Description: (§4) The transfected cells were harvested, seeded in a white 96-well plate and loaded with 10 μM CTZ in the same manner described in the NanoBiT-G-protein dissociation assay. After measuring an initial luminescent signal, test compounds were added to the cells. Then, 3-5 min later, luminescent signals were measured and fold-change values were plotted as described above.

RhoA [2] = experiment: NanoBiT-RhoA assay in PC-3 cells (endogenously expressed GPCRs); type: cell-based, human; details: thrombin 1000 U L^−1
Description: as §4

RhoA [3] = experiment: Active RhoA pulldown assay in Cal27 cells; type: cell-based; details: 10 μM CP-55940, 1 μM Ang II, 5 min
Description: (§1) HN12 cells and Cal27 cells were cultured to 50% confluency, and then serum starved overnight. To induce RhoA activation, cells were treated with 5 μM LPA, 1 μM Ang II, or 10 μM CP-55940 for 5 min. Active RhoA levels were measured using the RhoA Pull-Down Activation Assay Biochem Kit (bead pull-down format; Cytoskeleton) following the manufacturer instruction using a modified lysis buffer (50 mM Tris-HCl (pH 7.2), 500 mM NaCl, 10 mM MgCl2, 0.1% SDS, 1% NP-40). Briefly, after stimulation, samples were lysed and protein concentrations were quantified using DC Protein Assay (BioRad). Samples were adjusted to the same concentration with lysis buffer and 500 μg of each protein lysate was added to 15 μL GST-tagged Rhotekin-RBD bound to Sepharose beads. Samples were incubated while rocking at 4° C. for 1.5 h. Beads were then washed, eluted in Laemmli sample buffer, and analyzed by western blot using a mouse monoclonal anti-RhoA antibody (Cytoskeleton).

RhoA [4] = experiment: Active RhoA pulldown assay in HN12 cells; type: cell-based; details: 10 μM CP-55940, 1 μM Ang II, 5 min
Description: as §1

M3D-GPR132/ICL3 [5] = molecular target: T1, M3D-GPR132/ICL3 (Homo sapiens, UniProt P20309, A239G/DEL260-297/DEL301-447/DEL453-484/K449L/K485Q/T451A/Y149C); experiment: NanoBiT-G-protein dissociation assay, M3D-GPR132/ICL3; type: cell-based
T1 construct: expressed in transfected cells; host or cells: parental HEK293 (NanoBiT-G-protein assay); ΔGq HEK293 (TGFα shedding assay)
T1 sequence (P20309 with tags, fused parts or gaps Y149C/A239G/DEL260-297/DEL301-447/K449L/T451A/DEL453-484/K485Q): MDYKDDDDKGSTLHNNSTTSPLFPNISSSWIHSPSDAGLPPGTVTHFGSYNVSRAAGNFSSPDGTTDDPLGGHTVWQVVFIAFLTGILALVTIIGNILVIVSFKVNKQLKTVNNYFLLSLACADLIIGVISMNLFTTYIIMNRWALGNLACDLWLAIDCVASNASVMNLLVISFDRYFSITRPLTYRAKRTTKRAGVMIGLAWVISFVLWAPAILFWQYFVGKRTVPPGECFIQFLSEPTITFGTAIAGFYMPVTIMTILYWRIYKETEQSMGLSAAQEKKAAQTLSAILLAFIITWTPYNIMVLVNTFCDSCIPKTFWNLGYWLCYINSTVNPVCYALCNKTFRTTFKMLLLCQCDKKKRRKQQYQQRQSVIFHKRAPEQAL
Description: (§2) Plasmid transfection was performed in a 6-well plate with a mixture of 100 ng Gα-Lg-encoding plasmid, 500 ng Sm-Gβ-encoding plasmid, 500 ng untagged Gγ2-encoding plasmid, 200 ng GPCR-encoding plasmid with or without 100 ng RIC8-encoding plasmid (per well, hereafter). Unless otherwise stated, the combination of following plasmid mixtures was used: Gαs-Lg, Sm-Gβ1, Gγ2 and RIC8B for NanoBiT-Gs; Gαi1-Lg, Sm-Gβ5 and Gγ2 for NanoBiT-Gi1; Gαi2-Lg, Sm-Gβ3 and Gγ2 for NanoBiT-Gi2; Gαi3-Lg, Sm-Gβ3 and Gγ2 for NanoBiT-Gi3; Gαo-Lg, Sm-Gβ1 and Gγ2 for NanoBiT-Go; Gαq-Lg, Sm-Gβ1, Gγ2 and RIC8A for NanoBiT-Gq; Gα12-Lg, Sm-Gβ1, Gγ2 and RIC8A for NanoBiT-G12; Gα13-Lg, Sm-Gβ1, Gγ2 and RIC8A for NanoBiT-G13. After 1-day culture, the transfected cells were harvested with 1 mL of 0.53 mM EDTA-containing Dulbecco's PBS (D-PBS), followed by addition of 2 mL the HEPES-containing HBSS. The cells were pelleted by centrifugation at 190 g for 5 min and resuspended in 2 mL of the 0.01% BSA- and 5 mM HEPES (pH 7.4)-containing HBSS (assay buffer). The cell suspension was seeded in a 96-well culture white plate (Greiner Bio-One) at a volume of 80 μl (per well hereafter) and loaded with 20 μl of 50 μM coelenterazine (Carbosynth) solution diluted in the assay buffer. After 2-h incubation with coelenterazine at room temperature, background luminescent signals were measured using a luminescent microplate reader (SpectraMax L, Molecular Devices). The inventors note that incubation time with coelenterazine can be shortened, but an effect of baseline drift should be taken into account (FIG. 14C-E). Test compound (6×, diluted in the assay buffer) was manually added to the cells (20 μl). Luminescent signals were measured 3-5 min after ligand addition and divided by the initial count. The ligand-induced signal ratio was normalized to that treated with vehicle. The consequent fold-change values were fitted to a four-parameter sigmoidal concentration-response described above.

M3D-GPR183/ICL3 [6] = molecular target: T2, M3D-GPR183/ICL3 (Homo sapiens, UniProt P20309, A239G/DEL264-389/DEL400-485/E393L/E394T/G397S/K260R/L396K/M398G/R261T/T262A/V391N/Y149C); experiment: NanoBiT-G-protein dissociation assay, M3D-GPR183/ICL3; type: cell-based
T2 construct: expressed in transfected cells; host or cells: parental HEK293 (NanoBiT-G-protein assay); ΔGq HEK293 (TGFα shedding assay)
T2 sequence (P20309 with tags, fused parts or gaps Y149C/A239G/K260R/R261T/T262A/DEL264-389/V391N/E393L/E394T/L396K/G397S/M398G/DEL400-485): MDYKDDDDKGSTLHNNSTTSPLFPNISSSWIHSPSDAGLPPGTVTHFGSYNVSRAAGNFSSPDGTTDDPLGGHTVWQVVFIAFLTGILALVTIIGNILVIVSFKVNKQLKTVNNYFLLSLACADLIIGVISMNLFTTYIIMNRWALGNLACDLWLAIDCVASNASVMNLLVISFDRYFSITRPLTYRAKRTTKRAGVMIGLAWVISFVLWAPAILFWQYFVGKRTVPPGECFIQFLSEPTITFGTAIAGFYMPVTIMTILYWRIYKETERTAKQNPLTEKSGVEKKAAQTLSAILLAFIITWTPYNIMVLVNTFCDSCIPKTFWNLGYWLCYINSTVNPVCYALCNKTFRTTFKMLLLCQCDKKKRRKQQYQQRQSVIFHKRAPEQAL
Description: as §2

M3D-GPR132/ICL3 [7] = molecular target: T1, M3D-GPR132/ICL3; experiment: TGFα shedding assay in ΔGq HEK293 cells, M3D-GPR132/ICL3; type: cell-based; details: 10 μM CNO
Description: (§3) The TGFα shedding assay was performed as described previously (Inoue et al., 2012) with minor modifications. Plasmid transfection was performed in a 6-well plate with a mixture of 500 ng AP-TGFα-encoding plasmid, 200 ng GPCR-encoding plasmid with or without 100 ng Gα-encoding plasmid (per well, hereafter). After 1-day culture, the transfected cells were harvested by trypsinization, pelleted by centrifugation at 190 g for 5 min and washed once with Hank's Balanced Salt Solution (HBSS) containing 5 mM HEPES (pH 7.4). After centrifugation, the cells were resuspended in 6 ml of the HEPES-containing HBSS. […] The cell suspension was seeded in a 96-well culture plate (cell plate) at a volume of 90 μl (per well hereafter) and incubated for 30 min in a 5% CO2 incubator at 37° C. The cells were treated with a GPCR ligand (10×, diluted in HBSS containing 5 mM HEPES (pH 7.4) and 0.01% (w/v) bovine serum albumin (BSA, fatty acid-free and protease-free grade; Serva)). After spinning the cell plates, conditioned media (80 μl) was transferred to an empty 96-well plate (conditioned media (CM) plate). […] Absorbance at 405 nm (Ab405) of the plates was measured, using a microplate reader (SpectraMax 340 PC384, Molecular Devices), before and after 1-h or 2-h incubation at room temperature. Ligand-induced AP-TGFα release was calculated as described previously. […]

M3D-GPR183/ICL3 [8] = molecular target: T2, M3D-GPR183/ICL3; experiment: TGFα shedding assay in ΔGq HEK293 cells, M3D-GPR183/ICL3; type: cell-based; details: 10 μM CNO
Description: as §3

M3D-LTB4R2/ICL3 = experiment: NanoBiT-G-protein dissociation assay, M3D-LTB4R2/ICL3; type: cell-based, human; details: 10 μM CNO; parental HEK293 cells
Description: as §2, with “The cell suspension was seeded in a 96-well culture white plate (Greiner Bio-One) at a volume of 80 μl (per well hereafter) and loaded with 20 μl of 50 μM coelenterazine (Carbosynth) solution diluted in the assay buffer.” left out, “The inventors note that incubation time with coelenterazine can be shortened, but an effect of baseline drift should be taken into account (FIG. 14C-E). Test compound (6×, diluted in the assay buffer) was manually added to the cells (20 μl).” left out, “The ligand-induced signal ratio was normalized to that treated with vehicle. The consequent fold-change values were fitted to a four-parameter sigmoidal concentration-response described above.” left out

M3D-NMBR/ICL3 = experiment: NanoBiT-G-protein dissociation assay, M3D-NMBR/ICL3; type: cell-based, human; details: 10 μM CNO; parental HEK293 cells
Description: as §2, with “The cell suspension was seeded in a 96-well culture white plate (Greiner Bio-One) at a volume of 80 μl (per well hereafter) and loaded with 20 μl of 50 μM coelenterazine (Carbosynth) solution diluted in the assay buffer.” left out, “The inventors note that incubation time with coelenterazine can be shortened, but an effect of baseline drift should be taken into account (FIG. 14C-E). Test compound (6×, diluted in the assay buffer) was manually added to the cells (20 μl).” left out, “The ligand-induced signal ratio was normalized to that treated with vehicle. The consequent fold-change values were fitted to a four-parameter sigmoidal concentration-response described above.” left out

M3D-P2RY10/ICL3 = experiment: NanoBiT-G-protein dissociation assay, M3D-P2RY10/ICL3; type: cell-based, human; details: 10 μM CNO; parental HEK293 cells
Description: as §2, with “The cell suspension was seeded in a 96-well culture white plate (Greiner Bio-One) at a volume of 80 μl (per well hereafter) and loaded with 20 μl of 50 μM coelenterazine (Carbosynth) solution diluted in the assay buffer.” left out, “The inventors note that incubation time with coelenterazine can be shortened, but an effect of baseline drift should be taken into account (FIG. 14C-E). Test compound (6×, diluted in the assay buffer) was manually added to the cells (20 μl).” left out, “The ligand-induced signal ratio was normalized to that treated with vehicle. The consequent fold-change values were fitted to a four-parameter sigmoidal concentration-response described above.” left out

[9] = test system: DREADDs (M3D, M4D, M3D-Gs, M3D-GPR183/ICL3, M3D-GPR132/ICL3); experiment: NanoBiT-G-protein dissociation assay, DREADD panel with titrated CNO; type: cell-based, human; details: all of the DREADDs, HEK293 cells, read-out: EC50 values of CNO for each primary-coupling G-protein
Description: as §2, with “The cell suspension was seeded in a 96-well culture white plate (Greiner Bio-One) at a volume of 80 μl (per well hereafter) and loaded with 20 μl of 50 μM coelenterazine (Carbosynth) solution diluted in the assay buffer.” left out, “The inventors note that incubation time with coelenterazine can be shortened, but an effect of baseline drift should be taken into account (FIG. 14C-E). Test compound (6×, diluted in the assay buffer) was manually added to the cells (20 μl).” left out, “The ligand-induced signal ratio was normalized to that treated with vehicle. The consequent fold-change values were fitted to a four-parameter sigmoidal concentration-response described above.” left out

CNR1 = CNR1 (Homo sapiens, UniProt P21554); details: HEK293 cells expressing CNR1
Chain of CNR1 (P21554 whole entry): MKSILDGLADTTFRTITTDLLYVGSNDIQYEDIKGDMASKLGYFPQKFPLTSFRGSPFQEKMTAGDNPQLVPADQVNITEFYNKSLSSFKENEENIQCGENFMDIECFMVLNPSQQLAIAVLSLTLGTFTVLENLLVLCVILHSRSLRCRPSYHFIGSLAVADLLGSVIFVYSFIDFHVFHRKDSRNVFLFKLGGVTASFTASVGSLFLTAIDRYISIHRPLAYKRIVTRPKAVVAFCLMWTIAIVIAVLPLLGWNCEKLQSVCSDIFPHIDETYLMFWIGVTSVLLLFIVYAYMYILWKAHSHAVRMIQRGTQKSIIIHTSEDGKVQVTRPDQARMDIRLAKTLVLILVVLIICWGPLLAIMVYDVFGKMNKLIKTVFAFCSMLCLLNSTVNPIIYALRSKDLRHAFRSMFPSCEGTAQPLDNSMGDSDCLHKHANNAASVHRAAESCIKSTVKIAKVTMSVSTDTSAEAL
Description: as §4

[10] = 10 μM CNO, parental HEK293 cells
[11] = titrated CNO, NanoBiT-Gs, Go, Gq, G12 compared

Compound: thrombin
- RhoA activation (RhoA [1]): activated RhoA
- RhoA activation (RhoA [2]): activated RhoA

Compound: angiotensin II (DRVYIHPF; Angiotensin-2; UniProt P01019 25-32, looked up) [Ang II, endogenous ligand of AGTR1]
- RhoA activation (GTP-bound RhoA pulldown) (RhoA [3]): induced activation of RhoA
- RhoA activation (GTP-bound RhoA pulldown) (RhoA [4]): induced activation of RhoA

Compound: C[N+]1([O-])CCN(C2=Nc3cc(Cl)ccc3Nc3ccccc32)CC1 [CNO, clozapine-N-oxide]
- NanoBiT-G13 dissociation signal (M3D-GPR132/ICL3 [5]; 10 μM CNO): lack of G13 activation
- G12 and Go coupling (NanoBiT-G12 / NanoBiT-Go screening) (M3D-GPR132/ICL3 [5]; [10]): coupled to G12 and not to Go
- G12 dissociation signal (M3D-GPR132/ICL3 [5]; [11]): robust G12 dissociation signal
- NanoBiT-G13 dissociation signal (M3D-GPR183/ICL3 [6]; 10 μM CNO): lack of G13 activation
- G12 and Go coupling (NanoBiT-G12 / NanoBiT-Go screening) (M3D-GPR183/ICL3 [6]; [10]): coupled to G12 and not to Go
- G12 dissociation signal (M3D-GPR183/ICL3 [6]; [11]): robust G12 dissociation signal
- G12 signaling (TGFα shedding response) (M3D-GPR132/ICL3 [7]): significant G12 signaling
- G12 signaling (TGFα shedding response) (M3D-GPR183/ICL3 [8]): significant G12 signaling
- G12 and Go coupling (NanoBiT-G12 / NanoBiT-Go screening) (M3D-LTB4R2/ICL3): induced both G12 and Go coupling with a higher Go dissociation signal
- G12 and Go coupling (NanoBiT-G12 / NanoBiT-Go screening) (M3D-NMBR/ICL3): coupled to G12 and not to Go
- G12 and Go coupling (NanoBiT-G12 / NanoBiT-Go screening) (M3D-P2RY10/ICL3): coupled to G12 and not to Go
- EC50 [9]: 0.1 to 1 µM

Compound: CCCCCCC(C)(C)c1ccc([C@@H]2C[C@H](O)CC[C@H]2CCCO)c(O)c1 [CP-55940]
- RhoA activation (GTP-bound RhoA pulldown) (RhoA [3]): induced activation of RhoA
- RhoA activation (GTP-bound RhoA pulldown) (RhoA [4]): induced activation of RhoA
- RhoA activation (CNR1): RhoA activation occurred
